Assay results taken from patent US20240228501A1, “IMIDAZOLE-CONTAINING CONDENSED RING DERIVATIVE, PREPARATION METHOD THEREFOR, AND APPLICATION THEREOF IN MEDICINE” (CHANGCHUN GENESCIENCE PHARMACEUTICAL CO., LTD., priority 2021, published 2024).
Like-named read-outs stand apart in the source and are kept apart here.

Tests used:
[1] = biological target: T1, human NK-3 receptor (Homo sapiens, UniProt P29371); assay: Antagonistic activity on human NK-3 receptor in human NK-3R/HEK293 stably transfected cells (Fluo-4, FLIPR, Neurokinin B as agonist); type: cell-based; settings: human NK-3R/HEK293 cells
T1 construct: expressed in transfected cells; host or cells: HEK293
T1 sequence (P29371 1-465): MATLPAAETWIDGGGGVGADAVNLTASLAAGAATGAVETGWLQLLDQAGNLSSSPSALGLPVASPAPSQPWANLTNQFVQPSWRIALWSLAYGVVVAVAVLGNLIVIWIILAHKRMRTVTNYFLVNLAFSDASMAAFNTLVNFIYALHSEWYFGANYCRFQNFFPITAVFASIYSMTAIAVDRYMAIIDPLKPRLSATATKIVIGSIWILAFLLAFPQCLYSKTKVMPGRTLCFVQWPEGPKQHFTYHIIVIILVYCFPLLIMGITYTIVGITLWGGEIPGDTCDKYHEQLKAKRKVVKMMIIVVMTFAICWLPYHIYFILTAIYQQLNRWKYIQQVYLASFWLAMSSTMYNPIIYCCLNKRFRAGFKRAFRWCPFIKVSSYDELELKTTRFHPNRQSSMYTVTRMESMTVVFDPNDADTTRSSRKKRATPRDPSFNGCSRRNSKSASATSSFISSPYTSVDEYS
Protocol: Test Example 1: Determination of Activity of Compounds of the Present Invention on Human NK-3 Receptor
This method is used to determine antagonistic effects of the compounds of the present invention on the activity of human NK-3 receptor proteins expressed in cell lines stably transfected with human NK-3R/HEK293.
2.1 The cell lines stably transfected with human NK-3R/HEK293 were inoculated in a 384-well cell culture plate at a inoculation density of 12,000 cells/well/25 μL, and cultured at 37° C. and 5% CO2 overnight;
2.2 20× Component A was frozen and thawed to room temperature, diluted 2× with Assay Buffer to working concentration, and kept at room temperature for later use;
2.3 The cell culture plate was equilibrated at room temperature for 10 min, the culture medium was removed, and 20 μL of Assay Buffer and 20 μL of 2× Component A […] were added, followed by centrifugation at 200 g at room temperature for 3-5 sec, and incubation at 37° C. for 2 h;
2.4 The compound was diluted 3 times with DMSO in 384 PP_DMSO plate, and then 240 nl/well of the compound was transferred into a working plate with Echo 550, centrifugated at 200 g at room temperature for 1 min; 40 μl of Assay Buffer was added into the working plate, centrifugated at 200 g at room temperature for 1 min, and then fully mixed in an oscillator at 2500 rpm for 20 min, and then centrifugated at 200 g at room temperature for 1 min for later use;
2.5 2.5 nM Neurokinin B TFA (6×) was prepared from Assay Buffer, 50 uL of which was transferred onto 3657 plate for later use;
2.6 The cell culture plate was taken out and left to stand at room temperature for 10 min, then […] the compound diluted in step 2.4 was added into corresponding wells, and the cell culture plate was left to stand at 25° C. for 30 min; and
2.7 10 μL of the compound diluted in step 2.5 was added into the corresponding experimental wells with FLIPR Tetra, and data was collected.
The antagonistic activity of the compounds of the present invention on the human NK-3 receptor was determined through the above experiments, to obtain inhibition curves of the compounds of the present invention and determine concentrations (IC50) of the corresponding compounds that inhibit 50% of the reference agonist.

[2] = Pharmacokinetic test in rats (gavage 3 mg/kg, intravenous 1 mg/kg); type: in vivo; settings: rat, plasma, SD rats; for bioavailability: gavage 3 mg/kg vs intravenous 1 mg/kg, read-out: Oral bioavailability F (%); for Cmax: read-out: Blood concentration Cmax; for AUC: read-out: Curve area AUC; for half-life: read-out: Half life T1/2 (converted)
Protocol: Test Example 2: Pharmacokinetic Test of Compounds of the present invention in Rats
To study in vivo pharmacokinetic behaviors of the compounds of the present invention in rats, and evaluate pharmacokinetic characteristics thereof.
An appropriate amount of sample was weighed, and ultrasonically prepared into a 0.3 mg/mL suspension for the gavage administration group; and was prepared into a 0.2 mg/mL suspension for the intravenous administration group as per a formula of 5% DMSO+10% Solutol+85% (20% SBE-β-CD).
SD rats were fasted overnight, and then administered by gavage at a dosage of 3 mg/kg and by intravenous injection at a dosage of 1 mg/kg, respectively.
0.1 mL of blood was collected before administration and at 5 min, 15 min, 30 min, 1 h, 2 h, 4 h, 8 h, and 24 h after administration, transferred into heparinized tubes, and centrifuged at 3500 rpm for 10 min to separate the plasma, which was stored at −20° C. 4 h after administration, the animals were resumed for feeding/free access to water.
Contents of the test compounds in plasma of the rats after gavage administration were determined by LC/MS/MS.

[3] = tested on: MDR1; assay: In vitro brain model test: MDR1-MDCKII bidirectional permeability; type: in vitro ADME; settings: dog; for Papp A→B at 2.5 h, 2 μM / Papp B→A at 2.5 h, 2 μM: MDCK-MDR1, pH 7.4, 2 μM, pH7.4; for efflux ratio at 2.5 h, 2 μM: MDCK-MDR1, pH 7.4, B to A / A to B, read-out: Efflux rate
Protocol: The test product was diluted from dimethyl sulfoxide stock solution to a concentration of 2 μM (dimethyl sulfoxide <1%) with a transfer buffer (HBSS containing 10 mM Hepes, pH7.4); and was applied to apical or basolateral cavities of the cell monolayer. Penetration of the test compound from the direction A to the direction B or from the direction B to the direction A was determined in duplicate. Digoxin was detected at 10 μM in the direction of A-B, or detected in the direction of B-A, while Nadolol and Metoprolol were detected at 2 μM in the direction of A-B in duplicate. The plate was cultivated in a CO2 incubator at 37±1° C. for 2.5 h with 5% CO2 at a saturated humidity without shaking. Further, the efflux rate of each compound was also determined. According to the peak area ratio of analyte/IS, the test product and the control product were quantitatively analyzed by LC-MS/MS.
After the transfer test, the monolayer integrity of cells was determined by a lucifer yellow exclusion assay. Buffer was removed from apical and basolateral cavities, and then 75 μL of 100 μM lucifer yellow and 250 μL of transfer buffer were added into the apical and basolateral cavities, respectively. The culture dish was cultivated at 37° C., 5% CO2, and saturated humidity for 30 min without shaking. After incubation for 30 min, 20 μL of lucifer yellow sample was extracted from the top, and then 60 μL of the transfer buffer was added. Then, 80 μL of lucifer yellow sample was extracted basolaterally. Relative Fluorescence Units (RFU) of lucifer yellow were measured at 425/528 nm (excitation/emission) with an Envision plate reader.

SMILES: CC(=O)Nc1nc(-c2nc(C)ns2)n2c1[C@@H](C)N(C(=O)c1ccc(F)cc1)CC2 [Compound 034, (R)—N-(7-(4-fluorobenzoyl)-8-methyl-3-(3-methyl-1,2,4-thiadiazol-5-yl)-5,6,7,8-tetrahydroimidazo[1,5-a]pyrazin-1-yl)acetamide]
- IC50 [1]: 30.4 nM
- bioavailability ([2]; po): 83.1%
- Cmax ([2]; po, gavage 3 mg/kg): 1290 ± 133 ng/mL
- AUC ([2]; po, gavage 3 mg/kg): 5580 ± 241 ng·h/mL
- half-life ([2]; po, gavage 3 mg/kg): 3.92 ± 0.662 h
- AUC ([2]; intravenous injection 1 mg/kg): 2240 ± 418 ng·h/mL
- half-life ([2]; intravenous injection 1 mg/kg): 2.95 ± 0.855 h

SMILES: Cc1nsc(-c2nc(-c3ccnc(F)c3)c3n2CCN(C(=O)c2ccc(F)cc2)[C@@H]3C)n1 [Compound 044, (R)-(4-fluorophenyl)(1-(2-fluoropyridin-4-yl)-8-methyl-3-(3-methyl-1,2,4-thiadiazol-5-yl)-5,6-dihydroimidazo[1,5-a]pyrazin-7 (8H)-yl)methanone]
- IC50 [1]: 17 nM
- Papp A→B at 2.5 h, 2 μM [3]: 24 ×10⁻⁶ cm/s
- Papp B→A at 2.5 h, 2 μM [3]: 15.9 ×10⁻⁶ cm/s
- efflux ratio at 2.5 h, 2 μM [3]: 0.66

SMILES: Cc1nsc(-c2nc(N3CCCC3=O)c3n2CCN(C(=O)c2ccc(F)cc2)[C@@H]3C)n1 [Compound 068, (R)-1-(7-(4-fluorobenzoyl)-8-methyl-3-(3-methyl-1,2,4-thiadiazol-5-yl)-5,6,7,8-tetrahydroimidazo[1,5-a]pyrazin-1-yl)pyrrolidin-2-one]
- IC50 [1]: 8.36 nM
- bioavailability ([2]; po): 73.4%
- Cmax ([2]; po, gavage 3 mg/kg): 1030 ± 101 ng/mL
- AUC ([2]; po, gavage 3 mg/kg): 2890 ± 794 ng·h/mL
- half-life ([2]; po, gavage 3 mg/kg): 3.57 ± 1.39 h
- AUC ([2]; intravenous injection 1 mg/kg): 1280 ± 264 ng·h/mL
- half-life ([2]; intravenous injection 1 mg/kg): 1.02 ± 0.16 h

SMILES: Cc1nsc(-c2nc(-c3ccnc(F)c3F)c3n2CCN(C(=O)c2ccc(F)cc2)[C@@H]3C)n1 [Compound 074, (R)-(1-(2,3-difluoropyridin-4-yl)-8-methyl-3-(3-methyl-1,2,4-thiadiazol-5-yl)-5,6-dihydroimidazo[1,5-a]pyrazin-7 (8H)-yl)(4-fluorophenyl)methanone]
- IC50 [1]: 13.6 nM
- Papp A→B at 2.5 h, 2 μM [3]: 22.9 ×10⁻⁶ cm/s
- Papp B→A at 2.5 h, 2 μM [3]: 16.1 ×10⁻⁶ cm/s
- efflux ratio at 2.5 h, 2 μM [3]: 0.7

SMILES: Cc1nsc(-c2nc(N3C[C@H](F)CC3=O)c3n2CCN(C(=O)c2ccc(F)cc2)[C@@H]3C)n1 [Compound 107, (R)-4-fluoro-1-[(R)-7-(4-fluorobenzoyl)-8-methyl-3-(3-methyl-1,2,4-thiadiazol-5-yl)-5,6,7,8-tetrahydroimidazo[1,5-a]pyrazin-1-yl]pyrrolidin-2-one]
- IC50 [1]: 15.4 nM
- bioavailability ([2]; po): 65.6%
- Cmax ([2]; po, gavage 3 mg/kg): 348 ± 104 ng/mL
- AUC ([2]; po, gavage 3 mg/kg): 1860 ± 303 ng·h/mL
- half-life ([2]; po, gavage 3 mg/kg): 4.69 ± 1.18 h
- AUC ([2]; intravenous injection 1 mg/kg): 842 ± 66.3 ng·h/mL
- half-life ([2]; intravenous injection 1 mg/kg): 0.94 ± 0.19 h

SMILES: Cc1nsc(-c2nc(-c3cc(F)ncc3O)c3n2CCN(C(=O)c2ccc(F)cc2)[C@@H]3C)n1 [Compound 165, (R)-(1-(2-fluoro-5-hydroxypyridin-4-yl)-8-methyl-3-(3-methyl-1,2,4-thiadiazol-5-yl)-5,6-dihydroimidazo[1,5-a]pyrazin-7 (8H)-yl)(4-fluorophenyl)methanone]
- Papp A→B at 2.5 h, 2 μM [3]: 19.2 ×10⁻⁶ cm/s
- Papp B→A at 2.5 h, 2 μM [3]: 12.2 ×10⁻⁶ cm/s
- efflux ratio at 2.5 h, 2 μM [3]: 0.64

SMILES: Cc1nsc(-c2nc(N3COCC3=O)c3n2CCN(C(=O)c2ccc(F)cc2)C3C)n1 (stereo not shown) [Compound 169, 3-(7-(4-fluorobenzoyl)-8-methyl-3-(3-methyl-1,2,4-thiadiazol-5-yl)-5,6,7,8-tetrahydroimidazo[1,5-a]pyrazin-1-yl)oxazolidin-4-one]
- IC50 [1]: 65.7 nM

SMILES: C[C@@H]1c2c(N3CCCC3=O)nc(-c3nc(CF)ns3)n2CCN1C(=O)c1ccc(F)cc1 [Compound 184, (R)-1-(7-(4-fluorobenzoyl)-3-(3-(fluoromethyl)-1,2,4-thiadiazol-5-yl)-8-methyl-5,6,7,8-tetrahydroimidazo[1,5-a]pyrazin-1-yl)pyrrolidin-2-one]
- IC50 [1]: 46.5 nM

SMILES: C[C@@H]1c2c(N3CCCC3=O)nc(-c3nc([C@@H](C)F)ns3)n2CCN1C(=O)c1ccc(F)cc1 [Compound 186, 1-((R)-7-(4-fluorobenzoyl)-3-(3-((R)-1-fluoroethyl)-1,2,4-thiadiazol-5-yl)-8-methyl-5,6,7,8-tetrahydroimidazo[1,5-a]pyrazin-1-yl)pyrrolidin-2-one]
- IC50 [1]: 88.1 nM

SMILES: Cc1nsc(-c2nc(C(F)F)c3n2CCN(C(=O)c2ccc(F)cc2)[C@@H]3C)n1 [Compound 197, (R)-(1-(difluoromethyl)-8-methyl-3-(3-methyl-1,2,4-thiadiazol-5-yl)-5,6-dihydroimidazo[1,5-a]pyrazin-7 (8H)-yl)(4-fluorophenyl)methanone]
- IC50 [1]: 216 nM

SMILES: Cc1nsc(-c2nc([C@H]3CCCC3=O)c3n2CCN(C(=O)c2ccc(F)cc2)[C@@H]3C)n1 [Compound 211, (R)-2-((R)-7-(4-fluorobenzoyl)-8-methyl-3-(3-methyl-1,2,4-thiadiazol-5-yl)-5,6,7,8-tetrahydroimidazo[1,5-a]pyrazin-1-yl)cyclopentan-1-one]
- IC50 [1]: 284 nM

SMILES: CC(=O)Cc1nc(-c2nc(C)ns2)n2c1[C@@H](C)N(C(=O)c1ccc(F)cc1)CC2 [Compound 214, (R)-1-(7-(4-fluorobenzoyl)-8-methyl-3-(3-methyl-1,2,4-thiadiazol-5-yl)-5,6,7,8-tetrahydroimidazo[1,5-a]pyrazin-1-yl)propan-2-one]
- IC50 [1]: 246 nM

SMILES: Cc1nsc(-c2nc(-c3ccco3)c3n2CCN(C(=O)c2ccc(F)cc2)[C@@H]3C)n1 [Compound 218, (R)-(4-fluorophenyl)(1-(furan-2-yl)-8-methyl-3-(3-methyl-1,2,4-thiadiazol-5-yl)-5,6-dihydroimidazo[1,5-a]pyrazin-7 (8H)-yl)methanone]
- IC50 [1]: 225 nM

SMILES: Cc1nsc(-c2nc(N3CCCC3=O)c3n2CCN(C(=O)c2cc(F)c(F)c(F)c2)[C@@H]3C)n1 [Compound 220, (R)-1-(8-methyl-3-(3-methyl-1,2,4-thiadiazol-5-yl)-7-(3,4,5-trifluorobenzoyl)-5,6,7,8-tetrahydroimidazo[1,5-a]pyrazin-1-yl)pyrrolidin-2-one]
- IC50 [1]: 28 nM
